Calls of active or inactive are those of the source. No cut-off for these calls is given here.
Key:
HCC1806 [1] = assay: Antiproliferative activity against human HCC1806 cells assessed as inhibition of cell proliferation at 1 uM incubated for 24 hrs by SRB assay relative to control; format: functional
HCC1806 [2] = assay: Antiproliferative activity against human HCC1806 cells assessed as inhibition of cell proliferation incubated for 24 hrs by SRB assay; format: functional, cell-based; details: HCC1806, 24 h
HCC1806 [3] = assay: Induction of morphological changes in human HCC1806 cells assessed as rate of intracellular vacuolization at 1 uM incubated for 24 hrs by microscopic analysis relative to control; format: functional
HCC1806 [4] = assay: Antiproliferative activity against human HCC1806 cells assessed as inhibition of cell proliferation at 2 uM incubated for 24 hrs by SRB assay relative to control; format: functional
184B5 [5] = assay: Cytotoxicity against human 184B5 cells assessed as reduction in cell viability at 2 uM incubated for 24 hrs by SRB assay; format: toxicity, cell-based; details: 184b5, 24 h
MDA-MB-468 [6] = assay: Induction of morphological changes in human MDA-MB-468 cells assessed as intracellular vacuolization at 1 uM incubated for 24 hrs by microscopic analysis; format: functional, cell-based
184B5 [7] = assay: Induction of morphological changes in human 184B5 cells assessed as intracellular vacuolization upto 2 uM incubated for 24 hrs by microscopic analysis; format: toxicity, cell-based; details: 184b5, 24 h
MDA-MB-468 [8] = assay: Antiproliferative activity against human MDA-MB-468 cells assessed as inhibition of cell proliferation incubated for 24 hrs by SRB assay; format: functional, cell-based; details: MDA-MB-468, 24 h
HCC1937 = assay: Antiproliferative activity against human HCC1937 cells assessed as inhibition of cell proliferation incubated for 24 hrs by SRB assay; format: functional, cell-based; details: HCC1937, 24 h
HCC1806 [9] = assay: Induction of morphological changes in human HCC1806 cells assessed as intracellular vacuolization at 0.5 uM incubated for 24 hrs by microscopic analysis; format: functional, cell-based
MDA-MB-468 [10] = assay: Induction of morphological changes in human MDA-MB-468 cells assessed as intracellular vacuolization at 0.5 uM incubated for 24 hrs by microscopic analysis; format: functional, cell-based
HCC1806 [11] = assay: Induction of morphological changes in human HCC1806 cells assessed as intracellular vacuolization incubated for 24 hrs by microscopic analysis; format: functional, cell-based; details: dose 0.5-1.5 µM
MDA-MB-468 [12] = assay: Induction of morphological changes in human MDA-MB-468 cells assessed as intracellular vacuolization incubated for 24 hrs by microscopic analysis; format: functional, cell-based; details: dose 0.5-1.5 µM
HCC1806 [13] = assay: Induction of morphological changes in human HCC1806 cells assessed as intracellular vacuolization at 1.5 uM measured after 12 to 24 hrs by microscopic analysis; format: functional, cell-based; details: time 12-24 hrs
HCC1806 [14] = assay: Antiproliferative activity against human HCC1806 cells assessed as inhibition of cell proliferation at 1 uM pretreated with Z-VAD-FMK followed by compound addition measured after 24 hrs by SRB assay; format: functional, cell-based
MDA-MB-468 [15] = assay: Antiproliferative activity against human MDA-MB-468 cells assessed as inhibition of cell proliferation at 1 uM pretreated with Z-VAD-FMK followed by compound addition measured after 24 hrs by SRB assay; format: functional, cell-based
HCC1806 [16] = assay: Induction of morphological changes in human HCC1806 cells assessed as intracellular vacuolization at 1 uM pretreated with Z-VAD-FMK followed by compound addition measured after 24 hrs by microscopic analysis; format: functional, cell-based
MDA-MB-468 [17] = assay: Induction of morphological changes in human MDA-MB-468 cells assessed as intracellular vacuolization at 1 uM pretreated with Z-VAD-FMK followed by compound addition measured after 24 hrs by microscopic analysis; format: functional, cell-based
HCC1806 [18] = assay: Upregulation of p62 level in human HCC1806 cells incubated for 24 hrs by Western blot analysis; format: functional, cell-based; details: dose <= 1.5 µM
HCC1806 [19] = assay: Upregulation of LC3-II level in human HCC1806 cells incubated for 24 hrs by Western blot analysis; format: functional, cell-based; details: dose <= 1.5 µM
MDA-MB-468 [20] = assay: Upregulation of Rab7 level in human […] cells incubated for 24 hrs by Western blot analysis; format: functional, cell-based; details: dose <= 1.5 µM
HCC1806 [21] = assay: Upregulation of Lamp1 level in human HCC1806 cells incubated for 24 hrs by Western blot analysis; format: functional, cell-based; details: dose <= 1.5 µM
HCC1806 [22] = assay: Antiproliferative activity against human HCC1806 cells assessed as inhibition of cell proliferation at 1 uM measured after 24 hrs in presence of 3-MA by SRB assay; format: functional, cell-based
MDA-MB-468 [23] = assay: Antiproliferative activity against human MDA-MB-468 cells assessed as inhibition of cell proliferation at 1 uM measured after 24 hrs in presence of 3-MA by SRB assay; format: functional, cell-based
HCC1806 [24] = assay: Induction of morphological changes in human HCC1806 cells assessed as intracellular vacuolization at 1 uM measured after 24 hrs in presence of 3-MA by microscopic analysis; format: functional, cell-based
MDA-MB-468 [25] = assay: Induction of morphological changes in human MDA-MB-468 cells assessed as intracellular vacuolization at 1 uM measured after 24 hrs in presence of 3-MA by microscopic analysis; format: functional, cell-based
HCC1806 [26] = assay: Antiproliferative activity against human HCC1806 cells assessed as inhibition of cell proliferation at 1.5 uM pretreated with Baf-A1 followed by compound addition measured after 24 hrs by SRB assay; format: functional, cell-based
MDA-MB-468 [27] = assay: Antiproliferative activity against human MDA-MB-468 cells assessed as inhibition of cell proliferation at 1.5 uM pretreated with Baf-A1 followed by compound addition measured after 24 hrs by SRB assay; format: functional, cell-based
HCC1806 [28] = assay: Induction of morphological changes in human HCC1806 cells assessed as intracellular vacuolization at 1.5 uM pretreated with Baf-A1 followed by compound addition measured after 24 hrs by microscopic analysis; format: functional, cell-based
MDA-MB-468 [29] = assay: Induction of morphological changes in human MDA-MB-468 cells assessed as intracellular vacuolization at 1.5 uM pretreated with Baf-A1 followed by compound addition measured after 24 hrs by microscopic analysis; format: functional, cell-based
HCC1806 [30] = assay: Induction of macropinocytosis in human HCC1806 cells at 1.5 uM incubated for 24 hrs by LY staining based live cell imaging analysis; format: functional
MDA-MB-468 [31] = assay: Induction of macropinocytosis in human MDA-MB-468 cells at 1.5 uM incubated for 24 hrs by LY staining based live cell imaging analysis; format: functional
HCC1806 [32] = assay: Upregulation of Rab7 level in human HCC1806 cells incubated for 24 hrs by Western blot analysis; format: functional, cell-based; details: dose <= 1.5 µM
MDA-MB-468 [33] = assay: Upregulation of Lamp1 level in human MDA-MB-468 cells incubated for 24 hrs by Western blot analysis; format: functional, cell-based; details: dose <= 1.5 µM
HCC1806 [34] = assay: Upregulation of Rab7 level in human HCC1806 cells at 1.5 uM incubated for 24 hrs by immunofluorescence microscopy; format: functional, cell-based
HCC1806 [35] = assay: Upregulation of Lamp1 level in human HCC1806 cells at 1.5 uM incubated for 24 hrs by immunofluorescence microscopy; format: functional, cell-based
MDA-MB-468 [36] = assay: Upregulation of Rab7 level in human MDA-MB-468 cells at 1.5 uM incubated for 24 hrs by immunofluorescence microscopy; format: functional, cell-based
MDA-MB-468 [37] = assay: Upregulation of Lamp1 level in human MDA-MB-468 cells at 1.5 uM incubated for 24 hrs by immunofluorescence microscopy; format: functional, cell-based
HCC1806 [38] = assay: Antitumor activity against human HCC1806 cells xenografted in mouse assessed as tumor growth inhibition at 2.5 to 5 mg/kg, ip administered every 2 days for 15 days; format: functional, organism-based; details: dose 2.5-5 mg/kg, time 15.0 day
[39] = Toxicity in mouse xenografted with human HCC1806 cells assessed as body weight change at 2.5 to 5 mg/kg, ip administered every 2 days for 15 days; format: organism-based; details: in vivo, 360 h, dose 2.5-5 mg/kg, time 15 day
[40] = Toxicity in mouse xenografted with human HCC1806 cells assessed as drug tolerance at 2.5 to 5 mg/kg, ip administered every 2 days for 15 days; format: organism-based; details: in vivo, 360 h, dose 2.5-5 mg/kg, time 15 day
[41] = Toxicity in mouse xenografted with human HCC1806 cells assessed as effect on ALT level at 2.5 to 5 mg/kg, ip administered every 2 days for 15 days; format: organism-based; details: in vivo, 360 h, dose 2.5-5 mg/kg, time 15 day
[42] = Toxicity in mouse xenografted with human HCC1806 cells assessed as effect on AST level at 2.5 to 5 mg/kg, ip administered every 2 days for 15 days; format: organism-based; details: in vivo, 360 h, dose 2.5-5 mg/kg, time 15 day
[43] = Toxicity in mouse xenografted with human HCC1806 cells assessed as effect on CR level at 2.5 to 5 mg/kg, ip administered every 2 days for 15 days; format: organism-based; details: in vivo, 360 h, dose 2.5-5 mg/kg, time 15 day

IC50 (HCC1806 [2]): 700 nM
IC50 (MDA-MB-468 [8]): 920 nM
IC50 (HCC1937): 1030 nM
SMILES: COc1cc(Nc2nc(N3CCNCC3)ncc2SC)ccc1NC(=O)c1cccc(Br)n1
inhibition at 1 µM (HCC1806 [1]): 99.5%
Activity (HCC1806 [3]): 78.3%
inhibition at 2 µM (HCC1806 [4]): 7.07%
Activity (184B5 [5]): Toxic
Activity (MDA-MB-468 [6]): Active
Activity (184B5 [7]): Non-Toxic
Activity (HCC1806 [9]): Active
Activity (MDA-MB-468 [10]): Active
Activity (HCC1806 [11]): Dose-Dependent Effect
Activity (MDA-MB-468 [12]): Dose-Dependent Effect
Activity (HCC1806 [13]): Active
Activity (HCC1806 [14]): Active
Activity (MDA-MB-468 [15]): Active
Activity (HCC1806 [16]): Active
Activity (MDA-MB-468 [17]): Active
Activity (HCC1806 [18]): Dose-Dependent Effect
Activity (HCC1806 [19]): Dose-Dependent Effect
Activity (MDA-MB-468 [20]): Dose-Dependent Effect
Activity (HCC1806 [21]): Dose-Dependent Effect
Activity (HCC1806 [22]): Active
Activity (MDA-MB-468 [23]): Active
Activity (HCC1806 [24]): Active
Activity (MDA-MB-468 [25]): Active
Activity (HCC1806 [26]): inactive
Activity (MDA-MB-468 [27]): inactive
Activity (HCC1806 [28]): inactive
Activity (MDA-MB-468 [29]): inactive
Activity (HCC1806 [30]): Active
Activity (MDA-MB-468 [31]): Active
Activity (HCC1806 [32]): Dose-Dependent Effect
Activity (MDA-MB-468 [33]): Dose-Dependent Effect
Activity (HCC1806 [34]): Active
Activity (HCC1806 [35]): Active
Activity (MDA-MB-468 [36]): Active
Activity (MDA-MB-468 [37]): Active
Activity (HCC1806 [38]): Active
Activity [39]: Non-Toxic
Activity [40]: Non-Toxic
Activity [41]: Non-Toxic
Activity [42]: Non-Toxic
Activity [43]: Non-Toxic

From ChEMBL document CHEMBL5338793, “Discovery of Pyrimidinediamine Derivatives as Potent Methuosis Inducers for the Treatment of Triple-Negative Breast Cancer” (J Med Chem, 2023)
